In patent publication US8877185B2, “Managing and treating keloids” (priority 2012, dated 2014):

Test system: keloid
Assay: Irritation at the keloid site following application of capsaicin
Type: in vivo, human
Conditions: topical, rubbed on the keloid; Capzasin HP 0.1% capsaicin
From the text: In an embodiment, a method of treating or managing a keloid includes firstly removing flurandrenolide tape (or CORDRAN® (flurandrenolide) tape) by peeling it off the keloid and secondly, cleaning the keloid with water and soap, and then drying the keloid with a cloth or a paper towel. After the keloid is dried, graphites ointment is applied in a manner that includes completely or partially covering the keloid with the graphites ointment. Graphites 6C ointment is available in the open market, for example, sold on the interne by a number of companies such as Pomade, Nelson, Boiron, or SBL. […] In an aspect of the method of treatment, witch hazel ointment is applied to the keloid evenly on the keloid either separately or together with graphites. Witch hazel (Hamamelis virginiana) is available in the open market as a cream, lotion ointment or liquid. […] The Hamamelis ointment is allowed to be absorbed by the keloid. In an embodiment, capsaicin cream or ointment is applied to the keloid. Capsaicin, 8-Methyl-N-vanillyl-trans-6-nonenamide) (CH3)2CHCH═CH(CH2)4CONHCH2C6H3-4-(OH)-3—(OCH3)) is the active composition or mixture of chili peppers, which are plants belonging to the genus Capsicum. Capsaicin may be obtained over-the-counter as for example, Capzasin HP 0.1% capsaicin (brand name CHATTEM Registered Trade mark, by Chattem Inc., TN). […]

COc1cc(CNC(=O)CCCC/C=C/C(C)C)ccc1O [Capsaicin, 8-Methyl-N-vanillyl-trans-6-nonenamide]
Period of intense irritation or pain at the site of the keloid following application: about 30 minutes
